Data: paper PMC3606385 (PLoS ONE, 2013)
Values joined by “and” are separate entries in the source; they are usually repeats but may differ in a detail not shown here. Equal entries are not always repeated. “Also recorded” adds a separate entry of the source. Where two headings read alike, the source gives them in different places. Marks after values point to notes of the source that are not given here.

Legend:
[1] = tested on: Sprague-Dawley rats with high-fat-diet-induced metabolic syndrome; assay: High-fat-diet-induced metabolic syndrome treatment in rats; type: in vivo, rat; details: for Effect on serum LDL / Effect on serum glucose / Effect on serum total cholesterol / Effect on serum triglyceride (Tg): 200 mg/kg
Description: By the end of curcumin treatment, rats were euthanized. The body, liver, kidney and testis weights were recorded. Sera were collected after placing the bloods at room temperature for 25 min and centrifuged at 1500 g/min for 20 minutes. Sera were used for measurement of serum glucose, and lipid analysis. Serum glucose, total cholesterol, low density […], apolipoprotein A1 is (APOA1) and apolipoprotein B (APOB) were measured using a Hitachi 7600 biochemical analyzer (Hitachi, Japan) according to standard clinical protocol.

[2] = human, oral doses up to 8 g; cited from earlier work
[3] = target: T1, Rat 11β-HSD1 (Rattus norvegicus, UniProt P16232); assay: 11β-HSD1 assay in intact rat Leydig cells; type: cell-based
T1 construct: endogenous in cells; host or cells: primary adult Sprague-Dawley rat Leydig cells
Description: Rat Leydig cells contain the highest 11β-HSD1 activity in all cell types of rat tissues, and were used for rat 11β-HSD1 enzyme sources. Purified rat Leydig cells were obtained from 90-day-old Sprague-Dawley rats by collagenase digestion of the testes followed by Percoll density centrifugation of the cell suspension, according to the previously described method. […] The purity of cell fractions was evaluated by histochemical staining for 3β-hydroxysteroid dehydrogenase activity with […] etiocholanolone as the steroid substrate.
11β-HSD1 reductase activity was performed in intact cells using endogenous cofactor NADPH as described previously. […] 25×10^3 cells were added to each tube to initiate the reaction and the reaction mixture was incubated for up to 2 hrs, during which the reaction is within the linear range. At the end of reaction, the reaction was stopped by adding 2 ml ice-cold ether. The steroids were extracted, and the organic layer was dried under nitrogen. The steroids were separated chromatographically on thin layer plates in chloroform and methanol (90∶10, v/v), and the radioactivity was measured using a scanning radiometer (System AR2000, Bioscan Inc., Washington, DC) as described previously. The percentage conversion of 11DHC to CORT or cortisone to cortisol was calculated by dividing the radioactive counts identified as 11-OH-steroids by the total counts.
The IC50 was determined by adding different concentrations of each compound in the 11β-HSD1 or 11β-HSD2 reaction as described. The mode of inhibition was assayed by adding various concentrations of steroid substrates in the presence of an inhibitor as described.

[4] = tested on: db/db mice; details: cited from earlier work
[5] = HFD rats, 200 mg/kg curcumin, 2 months, vs HFD
[6] = HFD rats, 200 mg/kg curcumin, 2 months, vs HFD, listed as Curcumin
[7] = HFD rats, 200 mg/kg curcumin, 2 months, vs HFD, listed as curcumin
[8] = HFD rats, 200 mg/kg/day gavage, 2 months, Mean ± SEM, n = 10

T1 sequence (P16232 whole entry): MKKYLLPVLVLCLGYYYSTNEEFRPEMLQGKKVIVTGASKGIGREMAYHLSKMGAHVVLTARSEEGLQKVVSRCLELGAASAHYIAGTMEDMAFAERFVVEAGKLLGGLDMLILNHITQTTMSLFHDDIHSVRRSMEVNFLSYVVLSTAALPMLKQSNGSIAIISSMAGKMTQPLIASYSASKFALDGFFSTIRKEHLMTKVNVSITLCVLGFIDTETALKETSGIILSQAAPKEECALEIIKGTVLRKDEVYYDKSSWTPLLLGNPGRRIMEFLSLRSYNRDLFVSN

## COc1cc(/C=C/C(=O)CC(=O)/C=C/c2ccc(O)c(OC)c2)ccc1O [1 (Curcumin), Curcumin]
[1]; 200 mg/kg/day oral, HFD rats
  Effect on lipid profiles / HFD-induced dyslipidemia: effectively improved; also recorded: effectively prevented
[1]; [5]
  Effect on serum APOA1: significantly lowered
  Effect on serum APOB: significantly lowered
[1]; [6]
  Effect on serum LDL: reduced
  Effect on serum glucose: reduced
  Effect on serum total cholesterol: reduced
  Effect on serum triglyceride (Tg): reduced
[1]; [7]
  Effect on serum LDL: significantly lowered
  Effect on serum glucose: significantly lowered
  Effect on serum total cholesterol: significantly lowered
  Effect on serum triglyceride (Tg): significantly lowered
[1]; [8]
  Body weight (g): 324.8±6.614^b g
  Kidney(g): 1.309±0.0756^a g
  Liver(g): 10.67±0.297^a g
  Testis(g): 2.664±0.1012^a g
  Weight Gain(g): 136.3±6.516^c g
[1]; two months of treatment
  Effect on HFD-induced increase of body weight gain: reduced
  Effect on HFD-induced increase of liver weight: reduced
  Effect on kidney weight: did not affect
  Effect on testis weight: did not affect
[1]; two-month treatment, 200 mg/kg/day
  Adverse effects during treatment: no adverse effects
[2]
  Time to peak level after oral administration: ≤ 1 h
[3]; intact adult rat Leydig cells, read-out: IC50 rat 11β-HSD1 in intact cells
  IC50: 5790 nM and 2290 nM and 2000 to 6000 nM
[3]; intact rat Leydig cells, read-out: Rat 11β-HSD1 IC50 (nM) in Leydig cells
  IC50: 5790 nM
[4]
  Effect on body weights: lowered
  Effect on insulin resistance: corrected
  Effect on serum glucose levels: significantly reduced
